Experimental data from patent US8889711B2, “Pyrazolopyridine derivatives as anticancer agent” (Pierre Fabre Medicament, priority 2009, dated 2014).

Experiments:
karpas 299 cells = experiment: Measurement of inhibition of cell proliferation (Karpas), ATPlite; assay type: cell-based
Method: Measurement of Inhibition of Cell Proliferation (Karpas):
The antiproliferative activities of the compounds were measured using the ATPlite technique (Perkin Elmer).
The non-adhering cells (karpas 299) are seeded in 96-well plates (300 000 cells/ml) on Day 1 at a concentration compatible with logarithmic growth for 72 hours required for evaluation of the compounds. All the cells are treated on Day 1, then placed in an incubator at 37° C. under 5% CO2 atmosphere. Cell viability is evaluated on Day 4 by assay of released ATP, characteristic of viable cells. The IC50 values are determined by non-linear regression on the basis of a sigmoid model of dose/response relationship, Hill's slope coefficient being left variable, performed using GraphPad software sequence with the supplied algorithm.

ALK kinase = ALK kinase (Homo sapiens, UniProt Q9UM73); experiment: Test to measure ALK kinase inhibition (GST-PLCγ1 substrate, anti-phosphotyrosine ELISA, luminescence); assay type: biochemical; details: ALK kinase 180 ng/ml, 250 μM ATP, 30 minutes at 30° C.
Chain of ALK kinase (Q9UM73 19-1620): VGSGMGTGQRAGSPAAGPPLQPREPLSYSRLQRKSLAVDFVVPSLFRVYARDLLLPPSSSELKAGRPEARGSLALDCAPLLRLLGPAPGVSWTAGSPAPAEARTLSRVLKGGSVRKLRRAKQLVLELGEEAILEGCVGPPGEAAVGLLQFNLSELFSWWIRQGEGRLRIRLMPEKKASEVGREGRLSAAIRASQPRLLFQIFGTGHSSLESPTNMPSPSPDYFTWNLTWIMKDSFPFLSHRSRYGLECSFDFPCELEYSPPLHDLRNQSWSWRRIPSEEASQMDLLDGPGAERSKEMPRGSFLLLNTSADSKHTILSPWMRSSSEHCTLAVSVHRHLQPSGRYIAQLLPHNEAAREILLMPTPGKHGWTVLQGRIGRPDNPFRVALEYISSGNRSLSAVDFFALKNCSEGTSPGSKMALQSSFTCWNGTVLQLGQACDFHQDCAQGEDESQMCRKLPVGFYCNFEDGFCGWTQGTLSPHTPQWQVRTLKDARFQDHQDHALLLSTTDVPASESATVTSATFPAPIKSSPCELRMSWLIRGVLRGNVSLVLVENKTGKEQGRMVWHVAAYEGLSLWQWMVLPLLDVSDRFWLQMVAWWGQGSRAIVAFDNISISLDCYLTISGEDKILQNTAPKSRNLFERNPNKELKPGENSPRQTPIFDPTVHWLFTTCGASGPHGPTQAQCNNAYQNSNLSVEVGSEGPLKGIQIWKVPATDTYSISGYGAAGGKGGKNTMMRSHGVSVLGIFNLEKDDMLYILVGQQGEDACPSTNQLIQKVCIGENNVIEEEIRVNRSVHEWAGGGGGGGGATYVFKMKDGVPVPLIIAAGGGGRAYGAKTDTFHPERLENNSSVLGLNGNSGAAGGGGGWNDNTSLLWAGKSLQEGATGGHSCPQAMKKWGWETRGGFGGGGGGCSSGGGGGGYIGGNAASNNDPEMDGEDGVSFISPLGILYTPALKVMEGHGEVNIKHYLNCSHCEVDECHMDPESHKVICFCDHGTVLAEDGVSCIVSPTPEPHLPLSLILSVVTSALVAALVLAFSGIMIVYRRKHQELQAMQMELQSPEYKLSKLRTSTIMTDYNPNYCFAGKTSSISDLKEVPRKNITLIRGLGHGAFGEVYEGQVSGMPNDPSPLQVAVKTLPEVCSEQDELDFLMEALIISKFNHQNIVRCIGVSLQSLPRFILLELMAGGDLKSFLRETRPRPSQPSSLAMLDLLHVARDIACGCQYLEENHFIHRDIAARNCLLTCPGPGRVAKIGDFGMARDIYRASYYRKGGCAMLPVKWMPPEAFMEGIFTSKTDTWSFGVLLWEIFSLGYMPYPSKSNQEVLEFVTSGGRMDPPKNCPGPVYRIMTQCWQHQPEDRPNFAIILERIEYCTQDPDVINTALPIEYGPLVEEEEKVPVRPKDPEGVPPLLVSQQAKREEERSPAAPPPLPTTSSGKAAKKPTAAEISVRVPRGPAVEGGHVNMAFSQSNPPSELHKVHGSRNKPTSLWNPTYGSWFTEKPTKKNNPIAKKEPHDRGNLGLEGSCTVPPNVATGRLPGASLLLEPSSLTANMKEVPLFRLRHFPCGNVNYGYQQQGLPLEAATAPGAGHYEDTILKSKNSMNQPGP
Method: Test to Measure ALK Kinase Inhibition
A ViewPlate (Packard) is incubated with the GST-PLCγ1 substrate (purified recombinant form) at 0.1 mg/ml in phosphate buffer (PBS pH 7.4)(100 μl/well) for one hour under shaking. The plate is then saturated with a blocking solution containing 5% bovine serum albumin (BSA) (SIGMA) in PBS buffer pH 7.4.
After adding the inhibitor at the desired final concentration (usual range of 30 μM to 10 nM), the reaction is conducted by adding the ALK kinase at 180 ng/ml in 13 mM Tris reaction buffer pH 7.5 (SIGMA); 6.5 mM MgCl2 (MERCK); 0.65 mM DiThioThreitol (DTT) (ACROS); 39 mM sodium β-glycerophosphate (TCI); 0.65 mM sodium orthovanadate (SIGMA) and 250 μM ATP (SIGMA). Incubation is carried out for 30 minutes at 30° C. under shaking.
After three washings under shaking in 0.1% PBS/Tween-20 buffer (SIGMA), an anti-phosphotyrosine antibody coupled with HRP (UBI) diluted to 1/1000th in PBS/BSA buffer 5 mg/ml, is incubated for one hour under shaking. After three further washings in 0.1% PBS/Tween-20, the wells are incubated two minutes with 100 μl of SuperSignal ELISA mixture (PIERCE).
The signal is read in luminescent mode using a luminometer (MOLECULAR DEVICES SpectraMax M5e).

Compound | IC50 (karpas 299 cells; Homo sapiens, KARPAS-299, 72 h) | IC50 (ALK kinase) | IC50 (karpas 299 cells; 72 hours)
N#Cc1c(-c2cc(Cl)c(O)cc2F)nc2[nH]nc(N)c2c1-c1ccc(N2CCNCC2)cc1 [Compound 199] | > 10000 nM | < 100 nM | 
N#Cc1c(-c2ccc(O)cc2F)nc2[nH]nc(N)c2c1-c1ccc(N2CCC(N3CCCC3)CC2)cc1 [Compound 200] | 100 to 1000 nM | < 100 nM | 
N#Cc1c(-c2ccc(O)cc2F)nc2[nH]nc(-c3ccncc3)c2c1-c1ccc(N2CCNCC2)cc1 [Compound 201] | > 10000 nM | < 100 nM | 
COc1cc(-c2c(C#N)c(-c3ccc(O)cc3F)nc3[nH]nc(N)c23)ccc1N1CCNCC1 [Compound 202] | > 10000 nM | 100 to 1000 nM | 
N#Cc1c(-c2ccc(O)cc2F)nc2[nH]nc(N)c2c1-c1ccc(OCCCN2CCCCC2)cc1 [Compound 203] | 1000 to 10000 nM | 100 to 1000 nM | 
Cc1n[nH]c2nc(-c3ccc(O)cc3F)c(C#N)c(-c3ccc(N4CCNCC4)s3)c12 [Compound 204] | 100 to 1000 nM | < 100 nM | 
N#Cc1c(-c2ccc(O)cc2F)nc2[nH]nc(-c3ccccc3)c2c1-c1ccc(N2CCNCC2)cc1 [Compound 206] | 100 to 1000 nM | < 100 nM | 
Cc1n[nH]c2nc(-c3ccc(NS(C)(=O)=O)cc3F)c(C#N)c(-c3ccc(N4CCNCC4)cc3)c12 [Compound 208] | > 10000 nM | 1000 to 10000 nM | 
Cc1n[nH]c2nc(-c3ccc(O)cc3F)c(C#N)c(-c3ccc(N4CCNCC4)c([N+](=O)[O-])c3)c12 [Compound 209] | 1000 to 10000 nM | 100 to 1000 nM | 
CN(C)CCOc1ccc(-c2c(C#N)c(-c3ccc(O)cc3F)nc3[nH]nc(N)c23)cc1 [Compound 210] | 1000 to 10000 nM | 100 to 1000 nM | 
N#Cc1c(-c2ccc(O)cc2F)nc2[nH]nc(N)c2c1-c1ccc(OCCCN2CCNCC2)cc1 [Compound 211] | > 10000 nM | 100 to 1000 nM | 
N#Cc1c(-c2c(F)ccc(F)c2F)nc2[nH]nc(N)c2c1-c1ccc(N2CCNCC2)cc1 [Compound 212] | > 10000 nM | 1000 to 10000 nM | 
Cc1n[nH]c2nc(-c3ccc(O)cc3F)c(C#N)c(-c3ccc(OCCCN4CCNCC4)cc3)c12 [Compound 213] | 1000 to 10000 nM | < 100 nM | 
COC(=O)c1c(-c2ccc(O)cc2)nc2[nH]nc(C)c2c1-c1ccc(C)o1 [Compound 215] | 100 to 1000 nM | < 100 nM | 
Cc1n[nH]c2nc(-c3cc(Cl)ccc3F)c(C#N)c(-c3ccc(N4CCNCC4)cc3)c12 [Compound 217] | 1000 to 10000 nM | 1000 to 10000 nM | 
N#Cc1c(-c2ccc(O)cc2F)nc2[nH]nc(-c3ccc(F)cc3)c2c1-c1ccc(N2CCNCC2)cc1 [Compound 218] | 1000 to 10000 nM | < 100 nM | 
N#Cc1c(-c2ccccc2)nc2[nH]nc(-c3cccs3)c2c1-c1ccc(N2CCNCC2)cc1 [Compound 219] | 1000 to 10000 nM | 1000 to 10000 nM | 
N#Cc1c(-c2c(F)ccc(F)c2F)nc2[nH]nc(-c3cccs3)c2c1-c1ccc(N2CCNCC2)cc1 [Compound 221] | 1000 to 10000 nM | 100 to 1000 nM | 
CNc1ccc(-c2nc3[nH]nc(C)c3c(-c3ccc(N4CCNCC4)cc3)c2C#N)c(F)c1 [Compound 222] | > 10000 nM | 1000 to 10000 nM | 
CCOC(=O)c1c(-c2ccc(O)cc2)nc2[nH]nc(C)c2c1-c1ccc(C)o1 [Compound 223] | 100 to 1000 nM | < 100 nM | 
Cc1n[nH]c2nc(-c3ccc(O)cc3F)c(C#N)c(-c3ccc(N4CCNCC4)c(N)c3)c12 [Compound 226] | 1000 to 10000 nM | 100 to 1000 nM | 
Cc1n[nH]c2nc(-c3c(F)ccc(Cl)c3F)c(C#N)c(-c3ccc(N4CCNCC4)cc3)c12 [Compound 228] | 1000 to 10000 nM | 100 to 1000 nM | 
CC(C)(C)c1n[nH]c2nc(-c3ccc(O)cc3F)c(C#N)c(-c3ccc(N4CCNCC4)cc3)c12 [Compound 230] | 1000 to 10000 nM | 100 to 1000 nM | 
N#Cc1c(-c2cccc(O)c2)nc2[nH]nc(-c3cccs3)c2c1-c1ccc(N2CCNCC2)cc1 [Compound 231] | 1000 to 10000 nM | 1000 to 10000 nM | 
N#Cc1c(-c2cc3cc[nH]c3cc2F)nc2[nH]nc(N)c2c1-c1ccc(N2CCNCC2)cc1 [Compound 233] | > 10000 nM | 100 to 1000 nM | 
Cc1n[nH]c2nc(-c3cc4cc[nH]c4cc3F)c(C#N)c(-c3ccc(N4CCNCC4)cc3)c12 [Compound 234] | 1000 to 10000 nM | 100 to 1000 nM | 

Compound | IC50 (karpas 299 cells; Homo sapiens, KARPAS-299, 72 h) | IC50 (ALK kinase) | IC50 (karpas 299 cells; 72 hours)
N#Cc1c(-c2ccc(O)cc2F)nc2[nH]nc(-c3ccc([N+](=O)[O-])cc3)c2c1-c1ccc(N2CCNCC2)cc1 [Compound 235] | 1000 to 10000 nM | 100 to 1000 nM | 
N#Cc1c(-c2ccc(O)cc2F)nc2[nH]nc(-c3ccc(-c4ccccc4)cc3)c2c1-c1ccc(N2CCNCC2)cc1 [Compound 236] | 100 to 1000 nM | < 100 nM | 
Cc1n[nH]c2nc(-c3ccc(O)cc3F)c(S(C)(=O)=O)c(-c3ccc(N4CCNCC4)cc3)c12 [Compound 238] | 1000 to 10000 nM | 100 to 1000 nM | 
Cc1n[nH]c2nc(-c3ccc(OC(=O)c4ccccc4)cc3F)c(C#N)c(-c3ccc(N4CCNCC4)cc3)c12 [Compound 239] | 100 to 1000 nM | 100 to 1000 nM | 
N#Cc1c(-c2c(F)ccc(F)c2F)nc2[nH]nc(-c3ccco3)c2c1-c1ccc(N2CCNCC2)cc1 [Compound 242] | 1000 to 10000 nM | 100 to 1000 nM | 
N#Cc1c(-c2ccc(O)cc2F)nc2[nH]nc(-c3ccc(C(F)(F)F)cc3)c2c1-c1ccc(N2CCNCC2)cc1 [Compound 244] | 100 to 1000 nM | < 100 nM | 
CCOC(=O)c1c(-c2c(F)ccc(F)c2F)nc2[nH]nc(-c3cccs3)c2c1-c1ccc(N2CCNCC2)cc1 [Compound 245] | 1000 to 10000 nM | 100 to 1000 nM | 
N#Cc1c(-c2cccc(O)c2)nc2[nH]nc(-c3cccs3)c2c1-c1ccc(N2CCNCC2)cc1 [Compound 247] |  | 100 to 1000 nM | 1000 to 10000 nM
Cc1c(C#N)c(-c2c(F)ccc(F)c2F)nc2[nH]nc(-c3ccc(N4CCNCC4)cc3)c12 [Compound 248] | 1000 to 10000 nM | 1000 to 10000 nM | 
Cc1cc(-c2nc3[nH]nc(-c4ccco4)c3c(-c3ccc(N4CCNCC4)cc3)c2C#N)ccc1O [Compound 251] | 100 to 1000 nM | < 100 nM | 
CCOC(=O)c1c(-c2c(F)ccc(F)c2F)nc2[nH]nc(C)c2c1-c1ccc(N2CCNCC2)cc1 [Compound 252] | 1000 to 10000 nM | 100 to 1000 nM | 
Cc1n[nH]c2nc(-c3c(F)ccc(F)c3F)c(C#N)c(-c3ccc(N4CCC(N)CC4)o3)c12 [Compound 253] | 1000 to 10000 nM | 100 to 1000 nM | 
Cc1n[nH]c2nc(-c3ccc(O)cc3Cl)c(C#N)c(-c3ccc(N4CCNCC4)cc3)c12 [Compound 254] | 1000 to 10000 nM | 100 to 1000 nM | 
N#Cc1c(-c2c(F)ccc(F)c2F)nc2[nH]nc(-c3ccco3)c2c1-c1ccc(N2CCOCC2)o1 [Compound 255] | 1000 to 10000 nM | 1000 to 10000 nM | 
N#Cc1c(-c2ccc(O)cc2Cl)nc2[nH]nc(-c3ccc(N4CCOCC4)cc3)c2c1-c1ccc(N2CCNCC2)cc1 [Compound 256] | 1000 to 10000 nM | < 100 nM | 
Cc1n[nH]c2nc(-c3ccc(O)cc3F)c(C#N)cc12 [Compound 260] | 1000 to 10000 nM | 100 to 1000 nM | 
Cc1n[nH]c2nc(-c3ccc(O)cc3F)c(C#N)c(-c3ccc(-c4ccc(S(N)(=O)=O)cc4)o3)c12 [Compound 270] | > 10000 nM | 100 to 1000 nM | 
N#Cc1c(-c2ccc(O)cc2F)nc2[nH]nc(N)c2c1-c1ccc(-c2ccc(S(N)(=O)=O)cc2)o1 [Compound 271] | > 10000 nM | 100 to 1000 nM | 
N#Cc1c(-c2ccoc2)nc2[nH]nc(-c3ccco3)c2c1-c1ccc(N2CCNCC2)cc1 [Compound 272] | 1000 to 10000 nM | 1000 to 10000 nM | 
Cc1n[nH]c2nc(-c3ccc(O)cc3)c(C#N)c(-c3ccc(-c4ccc(N)cc4)o3)c12 [Compound 273] | > 10000 nM | 100 to 1000 nM | 
CN(C)CC#Cc1ccc(-c2c(C#N)c(-c3ccc(O)cc3)nc3[nH]ncc23)o1 [Compound 274] | 1000 to 10000 nM | 1000 to 10000 nM | 
Cc1n[nH]c2nc(-c3ccc(O)cc3)c(C#N)c(-c3ccc(-c4ccc(S(N)(=O)=O)cc4)o3)c12 [Compound 275] | > 10000 nM | 100 to 1000 nM | 
N#Cc1c(-c2cscn2)nc2[nH]nc(-c3cccs3)c2c1-c1ccc(N2CCNCC2)cc1 [Compound 276] | 1000 to 10000 nM | > 10000 nM | 
Cc1n[nH]c2nc(-c3ccc(O)c(F)c3F)c(C#N)c(-c3ccc(N4CCNCC4)cc3)c12 [Compound 277] | > 10000 nM | 100 to 1000 nM | 
Cc1cc(-c2nc3[nH]nc(-c4cccs4)c3c(-c3ccc(N4CCNCC4)cc3)c2C#N)c(F)cc1O [Compound 278] | 100 to 1000 nM | < 100 nM | 
N#Cc1c(-c2cnn[nH]2)nc2[nH]nc(-c3cccs3)c2c1-c1ccc(N2CCNCC2)cc1 [Compound 279] | > 10000 nM | 1000 to 10000 nM | 
